Where two headings read alike, the source gives them in different places.
Key:
[1] = tested on: Staphylococcus aureus (ATCC No. 6538); test: Antibacterial activity, log reduction of cfu; type: cell-based
Excerpt: (§1) The viable microorganisms used in the invention were not more than five passages removed from the original ATCC culture. As described herein, one passage is defined as the transfer of organisms from an established culture to fresh medium and all transfers are counted.
(§2) Cultures received from the ATCC are resuscitated according to the directions provided by the ATTC. Cells grown in broth were pelleted by centrifugation, resuspended in 1/20th the volume of fresh maintenance broth, and combined with an equal volume of 20% (v/v in water) sterile glycerol. Cells grown on agar were scraped from the surface into the maintenance broth also containing 10% glycerol broth. Small aliquots of the suspension were dispensed into sterile vials and the vials were stored in liquid nitrogen or in a mechanical freezer at a temperature no higher than about −50 °C. When a fresh seed-stock vial was required, it was removed and used to inoculate a series of working stock cultures. These working stock cultures were then used periodically (each day in the case of bacteria and yeast) to start the inoculum culture.
(§3) The culture conditions for the inoculum culture is substantially as described in Table IV. For example, suitable media can include but is not limited to, Soybean-Casein Digest or Sabouraud Dextrose Agar Medium. […]
(§4) The suspension should be refrigerated if it is not used within 2 hours. To confirm the initial cfu per mL estimate, the number of cfu per mL in each suspension was determined using the conditions of media and microbial recovery incubation times listed in Table IV (e.g., from about 3 to about 7 days). This value serves to calibrate the size of inoculum used in the test. The bacterial and yeast suspensions were used within 24 hours of harvest; whereas the fungal preparation can be stored under refrigeration for up to 7 days.
(§5) To determine which alkylglycoside formulations have antibacterial activity, the formulations were prepared in phosphate buffered saline (PBS) at pH 7. As a source of nutrition, either 1.5 mg/mL bovine serum albumin (BSA; see Tables V and VI) or 1 mg/mL of PYY was added (see Table VII) to the medium. BSA (CAS Number: 9048-46-8) was obtained from Sigma-Aldrich, St. Louis, MO, USA, n-dodecyl-4-O-α-D-glucopyranosyl-β-D-glucopyranoside and n-tetradecyl-4-O-α-D-glucopyranosyl-β-D-glucopyranoside were obtained from Anatrace Inc., Maumee, OH, USA, and PYY was obtained from Bachem California Inc., Torrance, CA, USA.
(§6) Antibacterial activity of the alkylglycosides were conducted in four sterile, capped bacteriological containers of suitable size into which a sufficient volume of alkylglycoside solution had been transferred. Each container was inoculated with one of the prepared and standardized inoculums and mixed. The volume of the suspension inoculum was between about 0.5% and about 1.0% of the volume of the alkylglycoside solution. […]. To determine the level of inhibition of growth, or reduction of growth based on a logarithmic scale, the initial concentration of viable microorganisms in each test preparation was estimated based on the concentration of microorganisms in each of the standardized inoculum as determined by the plate-count method. The inoculated containers were then incubated at about 22.5 °C±2.5. The growth or non-growth of the microorganisms in each culture/container were again determined at day 14 and day 28. The number of cfu present in each calculation was determined by the plate-count procedure standard in the art for the applicable intervals. The change in the orders of magnitude of bacterium and/or fungi was then determined by subtracting the first calculated log 10 values of the concentrations of cfu per mL present at the start or beginning (e.g., day 0), from the log 10 values of the concentration of cfu per mL for each microorganism at the applicable test intervals (e.g., day 14 and day 28; see Tables V, VI and VII).

[2] = tested on: Escherichia coli (ATCC No. 8739); test: Antibacterial activity, log reduction of cfu; type: cell-based; conditions: Escherichia coli
Excerpt: as §1, §2, §3, §4, §5, §6

blood glucose = test: Ocular administration of insulin plus absorption enhancer, blood glucose in anesthetized rats; type: in vivo, rat (male Sprague-Dawley); conditions: for Blood Glucose: insulin eye drops + 0.50%
[3] = rat, in vivo
Experimental: Each set of drug solutions is administered to six groups of eight rats each by 20 uL instillation to a single nare of each animal. […] After the last blood sample is collected each animal is euthanized with CO2. […] Plasma samples are stored at −70 °C until analyzed. […] The concentration vs time data are plotted to determine the Cmax at each alkylsaccharide concentration and the ratio of Cmax with and without alkylsaccharide present is calculated and recorded as shown in Table XIX.

[4] = tested on: Candida albicans (ATCC No. 10231); test: Antimicrobial activity, log reduction of cfu; type: cell-based
Excerpt: as §1, §2, §3, §4, §5, §6

[5] = tested on: Aspergillus niger (ATCC No. 16404); test: Antimicrobial activity, log reduction of cfu; type: cell-based; conditions: for log reduction at […]: Aspergillus niger
Excerpt: as §1, §2, §3, §4, §5, §6

[6] = Oral phenylephrine tablet bioavailability in a canine model; type: in vivo, dog; conditions: compressed tablets
Experimental: In a canine model, subjects were dosed orally with various phenylephrine (PE) tablet formulations, and blood samples were taken to determine the rate of parent phenyl ethyl phenylephrine absorption. Blood levels of parent phenylephrine were measured. Three subject groups were created with each alkylsaccharide test group containing five subjects in each test group. All subject groups received 10 mg of phenylephrine as a single tablet. Each subject was in the fasting state for overnight and two hours post dose. Blood samples were taken at pre-dose, 5, 10, 15, 30, 45 min., 1, 2, and 3 hours.
Comparator was the standard 30 mg (total weight including excipients) phenylephrine tablet was no absorption enhancer. Group number 2 tablets contain the alkylsaccharide designated A3, which is n-dodecyl-beta-D-maltoside in the amounts of 2.5 mg, 5 mg, and 7.5 mg, respectively. Group number three tablets contain the alkylsaccharide designated B3, which is sucrose monododecanoate, in the amounts of 5 mg, 10 mg, and 20 mg, respectively.

With CCCCCCCCCCCCO[C@@H]1O[C@H](CO)[C@@H](O[C@H]2O[C@H](CO)[C@@H](O)[C@H](O)[C@H]2O)[C@H](O)[C@H]1O [Dodecyl Maltoside, n-Dodecyl-4-O-α-D-glucopyranosyl-β-D-glucopyranoside] the log reduction at […] ([1]; ATCC6538, 336 h) was ≥ 4.9, the log reduction at […] ([1]; ATCC6538, 336 h, read-out: log reduction of microorganisms) was ≥ 5.2 and the log reduction at […] ([1]; ATCC6538, 672 h) was ≥ 4.9. For the same compound, the log reduction at […] ([1]; ATCC6538, 672 h, read-out: log reduction of microorganisms) was ≥ 5.2, the log reduction at […] ([2]; ATCC8739, 336 h) was ≥ 5 and the log reduction at […] ([2]; ATCC8739, 672 h) was ≥ 5. The log reduction at […] ([2]; ATCC8739, 672 h, read-out: log reduction of microorganisms) was 0.1, the “effect on ocular insulin absorption” value (blood glucose; 0.5% and […] enhancer with insulin eye drops) was “equally effective” and the “effect on blood glucose / ocular insulin absorption” value (blood glucose; 0.5% enhancer with 0.2% insulin eye drops) was “maintained in the normoglycemic (80-120 mg/dl) or near-normoglycemic (120-160 mg/dl) range”. The “effect on ocular insulin absorption (alkyl chain length comparison)” value (blood glucose; alkylmaltosides with insulin eye drops) was “more effective”, the Blood Glucose (blood glucose; 0 min) was 379 ± 4 mg/dL and the Blood Glucose (blood glucose; 30 min) was 297 ± 18 mg/dL. The Blood Glucose (blood glucose; 60 min) was 188 ± 25 mg/dL, the Blood Glucose (blood glucose; 90 min) was 141 ± 13 mg/dL and the Blood Glucose (blood glucose; 120 min) was 123 ± 5 mg/dL. For the same compound, the Blood Glucose (blood glucose; -10 min (pre-dose)) was 366 ± 12 mg/dL, the Blood Glucose (blood glucose; -20 min (pre-dose)) was 375 ± 9 mg/dL and the “Ratio Cmax(alkylsacch)/Cmax(No alkylsacch)” value [3] was ≥1.5. For the same compound, the log reduction at […] ([4]; ATCC10231, 336 h) was ≥ 4.5, the log reduction at […] ([4]; ATCC10231, 336 h, read-out: log reduction of microorganisms) was 3 and the log reduction at […] ([4]; ATCC10231, 672 h) was ≥ 4.5. The log reduction at […] ([4]; ATCC10231, 672 h, read-out: log reduction of microorganisms) was ≥ 5.3, the log reduction at […] ([5]; ATCC16404, 336 h) was 4.7 and the log reduction at […] ([5]; ATCC16404, 336 h, read-out: log reduction of microorganisms) was 0.7. The log reduction at […] ([5]; ATCC16404, 672 h) was 4.7, the “growth from initial count” value ([5]; […], day 28) was “No growth” and the “increase of oral bioavailability of phenylephrine” value [6] was “up to 56%”.

— patent US20260364175A1, “COMPOSITIONS FOR DRUG ADMINISTRATION” (Aegis Therapeutics, LLC, priority 2018, published 2026)
